The record followed here is patent publication US8119812B2, “Thiazolidinone derivative” (SBI Biotech Co., Ltd., priority 2009, dated 2012).

The test system of this assay is HeLa cells. Description: Cell proliferation inhibitory activity, WST-1 assay, HeLa cells. Format: cell-based. The note with it: FIG. 1; incubation for 24 hours after adding compound; absorbance at 450 nm (WST-1); cell line not given. The protocol:
Cell proliferation inhibitory activity of the thiazolidinone derivatives shown in Tables 2 to 21 and 26 to 29 were evaluated according to the following procedure.
HeLa cells (ATCC) were cultured in a medium (DMEM-10% FCS-Penicillin/Streptomycin) on 10-cm dishes. The medium was removed from the HeLa cells (ATCC) in healthy growth conditions (70 to 90% confluent), the cells were detached by treating with 2 ml of trypsin (TrypL Express, GIBCO), and then the cells were collected using the same medium.
After the collected cells were suspended in the medium at a concentration of 5×10^4 cells/mL, 100 μL, each of the cells were seeded on 96-well plates (FALCON, 3530) at a concentration of 5×10^3 […]. Each medium alone without cells was added to the blank wells. The wells were incubated in a 5% CO2 incubator. The culture media used are as follows.
HeLa cells: DMEM-10% FCS-Penicillin/Streptomycin,
The following day after the start of culturing, the medium was replaced with that including candidate compounds. At the beginning, the candidate compounds were diluted with DMSO, and a 10-step dilution series from 0 μM to 12.5 mM was prepared. 249 μL of the medium was added to 1.5-ml tubes. Then, 1 μL of the compound diluted with DMSO was added thereto at each concentration, and this was mixed. By this procedure, the ratio of DMSO included becomes 1/250. More specifically, in case of the following dilution series, the final concentrations of candidate compounds are as follows.
After removing the medium in wells, each candidate compound was added in duplicate to each well at a volume of 100 μL per one concentration. […]
On the next day or the day after the next day (24 to 48 hours later), 10 μL of Cell Proliferation Reagent WST-1 (ROCHE) was added to each well. […] The formed pigment can be assayed by measuring the absorbance at 450 nm. After incubation for an hour in a CO2 incubator, the absorbance at 450 nm was measured using a microplate reader. The values were evaluated by subtracting the blank value, and plotted by curve-fitting using the Prism software, and IC50 was calculated.
For orientation: Tetrazolium assays rely on reduction of a dye to a coloured formazan, in cell work by metabolically active cells.

As to `Cc1cc(OCCN(C)C)ccc1/N=C1/NC(=O)/C(=C/c2cnc(NC(=O)C3CC3)s2)S1` [Compound 119, (2Z,5Z)-N-(5{[2-({4-[2-(dimethylamino)ethoxy]-2-methylphenyl}azamethylene)-4-oxo(1,3-thiazolidin-5-ylidene)]methyl}(1,3-thiazol-2-yl))cyclopropylcarboxamide], the cell proliferation-inhibiting effect result is on record as “strong inhibitory effect”.

Turning to `Cc1cc(OC2CCN(C)C2)ccc1/N=C1/NC(=O)/C(=C/c2cnc(NC(=O)C3CC3)s2)S1` (stereo not drawn) [Compound 139, (2Z,5Z)-cyclopropyl-N-{5-[(2-{[2-methyl-4-(1-methylpyrrolidin-3-yloxy)phenyl]azamethylene}-4-oxo(1,3-thiazolidin-5-ylidene))methyl] (1,3-thiazol-2-yl)}carboxamide], the cell proliferation-inhibiting effect entry is “strong inhibitory effect”.

Consider `COC(=O)N(C)CCOc1ccc(/N=C2/NC(=O)/C(=C/c3cnc(NC(=O)C4CC4)s3)S2)c(C)c1` [Compound 137, (2Z,5Z)-N-(2-{4-[(5-{[2-(cyclopropylcarbonylamino) (1,3-thiazol-5-yl)]methylene}-4-oxo(1,3-thiazolidin-2-ylidene))azamethyl]-3-methylphenoxy}ethyl) methoxy-N-methylcarboxamide], for which the cell proliferation-inhibiting effect entry is reported as “strong inhibitory effect”.
